From patent publication US8785457B2 (Cellzome Limited, priority 2009, dated 2014)

Tested on: Akt serine-473 phosphorylation
Test: In vitro Phospho-Akt cellular assay (pAkt S473) in HEK293T/17 cells
Format: cell-based
Conditions: Homo sapiens, 2 hours
From the text: Activation of mTOR signaling results in phosphorylation of several downstream targets. In cells, mTOR exists in two different protein complexes. The mTOR Complex-1 (mTORC1) phosphorylates and activates S6 Kinase 1 (S6K1) and S6 Kinase 2 (S6K2) (also known as p70S6K) which then phosphorylate S6 Ribosomal Protein (S6RP) (also known as RPS6)3. S6RP is phosphorylated on serine 235, serine 236, serine 240 and serine 244 by both pS6K1 and pS6K2. The mTOR Complex-2 (mTORC2) phosphorylates AKT on serine 473 which activates the AKT signaling pathway.
The assay measures a test compound's inhibition of S6RP serine-240/244 phosphorylation and inhibition of Akt serine-473 phosphorylation in human embryonic kidney derived HEK293T/17 cells (ATCC CRL-11268).
The HEK293T/17 cell line is maintained in DMEM media (Invitrogen catalogue number 41965-039) supplemented with 10% FCS at 37° C. in a 5% CO2 humidified incubator.
Cells are seeded in 96-well plates at 40,000 cells/well (pS6RP S240/244 assay) or 80,000 cells/well (pAkt S473 assay) in 90 μl growth media (DMEM, 2% FCS). Plates are incubated for 1 hour in a humidified incubator to allow the cells to adhere. Cells are treated with 8 concentrations of test compounds or DMSO alone for controls (final DMSO concentration 0.1%) and incubated at 37° C. for 2 hours. Then 20 μl of 5× concentrated lysis buffer (750 mM NaCl, 100 mM Tris pH7.4, 5 mM ADTA, 5 mM EGTA, 5% Triton X-100) is added, plates are sealed and incubated for 15 minutes at 4° C. with gentle shaking. After cell lysis, 25 μl cell lysate is transferred to a MesoScale plate coated with an antibody to pS6RP Ser240/244 (MesoScale Discovery K150DGD-3) or an antibody to pAkt Ser 473 (MesoScale Discovery K151DGD-3). Plates have been blocked before by incubation with 150 μl MesoScale Discovery Blocking Solution-A for 1 hour at room temperature followed by washing with 150 μl 1× Tris wash buffer per well. After the transfer of the cell lysate to the MSD plate, the pS6RP (or pAkt) protein is captured on the coated antibody by incubation at room temperature for 1 hour with gentle shaking. After the capture step the plate is washed three times with 150 μl of 1× Tris wash buffer per well. Then 25 μl detection antibody conjugated with a Sulfo-Tag is added and incubated for 1 hour at room temperature with gentle shaking. Subsequently the antibody solution is removed and the plate is washed 3 times with 150 μl×Tris wash buffer per well and 150 μl Read buffer is added. The plates are analysed on a MSD 2400 Plate Reader (MesoScale Discovery). Data analysis is performed using nonlinear regression for a sigmoidal dose-response with a variable slope.

IC50 | Compound
29 nM | CCNC(=O)Nc1ccc(-c2nc3c(c(N4CCOC[C@@H]4C)n2)CN(C(=O)C(C)(C)C)C3)cc1 [Example 22, (S)-1-ethyl-3-(4-(4-(3-methylmorpholino)-6-pivaloyl-6,7-dihydro-5H-pyrrolo[3,4-d]pyrimidin-2-yl)phenyl)urea]
68 nM | CCNC(=O)Nc1ccc(-c2nc3c(c(N4CCOC[C@@H]4C)n2)CN(C)C3)cc1 [Example 26, (S)-1-ethyl-3-(4-(6-methyl-4-(3-methylmorpholino)-6,7-dihydro-5H-pyrrolo[3,4-d]pyrimidin-2-yl)phenyl)urea]
16 nM | CCNC(=O)Nc1ccc(-c2nc3c(c(N4CCOC[C@@H]4C)n2)CCN(CC)C3)cc1 [Example 27, (S)-1-ethyl-3-(4-(7-ethyl-4-(3-methylmorpholino)-5,6,7,8-tetrahydropyrido[3,4-d]pyrimidin-2-yl)phenyl)urea]
160 nM | CCNC(=O)N1Cc2nc(-c3ccc(NC(=O)NC4CC4)cc3)nc(N3CCOC[C@@H]3C)c2C1 [Example 33, (S)-2-(4-(3-cyclopropylureido)phenyl)-N-ethyl-4-(3-methylmorpholino)-5H-pyrrolo[3,4-d]pyrimidine-6(7H)-carboxamide]
14 nM | CCNC(=O)Nc1ccc(-c2nc3c(c(N4CCOC[C@@H]4C)n2)CCN(C)C3)cc1 [Example 35, (S)-1-ethyl-3-(4-(7-methyl-4-(3-methylmorpholino)-5,6,7,8-tetrahydropyrido[3,4-d]pyrimidin-2-yl)phenyl)urea]
45 nM | CCNC(=O)Nc1ccc(-c2nc3c(c(N4CCOC[C@@H]4C)n2)CCN(CC2CC2)C3)cc1 [Example 37, (S)-1-(4-(7-(cyclopropylmethyl)-4-(3-methylmorpholino)-5,6,7,8-tetrahydropyrido[3,4-d]pyrimidin-2-yl)phenyl)-3-ethylurea]
43 nM | C[C@H]1COCCN1c1nc(-c2ccc(NC(=O)NC3CC3)cc2)nc2c1CCN(CC1CC1)C2 [Example 40, (S)-1-cyclopropyl-3-(4-(7-(cyclopropylmethyl)-4-(3-methylmorpholino)-5,6,7,8-tetrahydropyrido[3,4-d]pyrimidin-2-yl)phenyl)urea]
35 nM | CC(C)N1CCc2c(nc(-c3ccc(NC(=O)NC4CC4)cc3)nc2N2CCOC[C@@H]2C)C1 [Example 43, (S)-1-cyclopropyl-3-(4-(7-isopropyl-4-(3-methylmorpholino)-5,6,7,8-tetrahydropyrido[3,4-d]pyrimidin-2-yl)phenyl)urea]
19 nM | CCNC(=O)Nc1ccc(-c2nc3c(c(N4CCOC[C@@H]4C)n2)CCN(C(=O)C2CC2)C3)cc1 [Example 56, (S)-1-(4-(7-(cyclopropanecarbonyl)-4-(3-methylmorpholino)-5,6,7,8-tetrahydropyrido[3,4-d]pyrimidin-2-yl)phenyl)-3-ethylurea]
14 nM | CCNC(=O)Nc1ccc(-c2nc3c(c(N4CCOC[C@@H]4C)n2)CCN(C(=O)C(C)C)C3)cc1 [Example 57, (S)-1-ethyl-3-(4-(7-isobutyryl-4-(3-methylmorpholino)-5,6,7,8-tetrahydropyrido[3,4-d]pyrimidin-2-yl)phenyl)urea]
41 nM | COC(=O)N1Cc2nc(-c3ccc(NC(=O)NC4CC4)cc3F)nc(N3CCOC[C@@H]3C)c2C1 [Example 146, (S)-methyl 2-(4-(3-cyclopropylureido)-2-fluorophenyl)-4-(3-methylmorpholino)-5H-pyrrolo[3,4-d]pyrimidine-6(7H)-carboxylate]
107 nM | CCNC(=O)Nc1ccc(-c2nc3c(c(N4CCOCC4)n2)CN(C(=O)OCC)C3)c(F)c1 [Example 151, Ethyl 2-(4-(3-ethylureido)-2-fluorophenyl)-4-morpholino-5H-pyrrolo[3,4-d]pyrimidine-6(7H)-carboxylate]
49 nM | CCNC(=O)Nc1ccc(-c2nc3c(c(N4CCOC[C@@H]4C)n2)CN(C(=O)OC)C3)c(F)c1 [Example 152, (S)-methyl 2-(4-(3-ethylureido)-2-fluorophenyl)-4-(3-methylmorpholino)-5H-pyrrolo[3,4-d]pyrimidine-6-(7H)-carboxylate]
76 nM | CCOC(=O)N1Cc2nc(-c3ccc(NC(=O)NC4CC4)cc3F)nc(N3CCOCC3)c2C1 [Example 156, Ethyl 2-(4-(3-cyclopropylureido)-2-fluorophenyl)-4-morpholino-5H-pyrrolo[3,4-d]pyrimidine-6(7H)-carboxylate]
314 nM | CN1Cc2nc(-c3ccc(NC(=O)NC4CC4)cc3F)nc(N3CCOCC3)c2C1 [Example 159, 1-(Cyclopropyl)-3-(3-fluoro-4-(6-methyl-4-morpholino-6,7-dihydro-5H-pyrrolo[3,4-d]pyrimidin-2-yl)phenyl)urea]
85 nM | CCNC(=O)Nc1ccc(-c2nc3c(c(N4CCOCC4)n2)CN(C(=O)OC)C3)c(F)c1 [Example 162, methyl 2-(4-(3-ethylureido)-2-fluorophenyl)-4-morpholino-5H-pyrrolo[3,4-d]pyrimidine-6(7H)-carboxylate]
37 nM | C[C@H]1COCCN1c1nc(-c2ccc(NC(=O)NC3CC3)cc2F)nc2c1CCN(C(=O)N(C)C)C2 [Example 165, (S)-2-(4-(3-cyclopropylureido)-2-fluorophenyl)-N,N-dimethyl-4-(3-methylmorpholino)-5,6-dihydropyrido[3,4-d]pyrimidine-7(8H)-carboxamide]
54 nM | CCOC(=O)N1Cc2nc(-c3ccc(NC(=O)NCCF)cc3F)nc(N3CCOCC3)c2C1 [Example 170, ethyl 2-(2-fluoro-4-(3-(2-fluoroethyl)ureido)phenyl)-4-morpholino-5H-pyrrolo[3,4-d]pyrimidine-6(7H)-carboxylate]
101 nM | CC(C)N1Cc2nc(-c3ccc(NC(=O)NC4CC4)cc3F)nc(N3CCOC[C@@H]3C)c2C1 [Example 172, (S)-1-cyclopropyl-3-(3-fluoro-4-(6-isopropyl-4-(3-methylmorpholino)-6,7-dihydro-5H-pyrrolo[3,4-d]pyrimidin-2-yl)phenyl)urea]
49 nM | COC(=O)N1Cc2nc(-c3ccc(NC(=O)NC4CC4)cc3F)nc(N3CCOCC3)c2C1 [Example 173, Methyl 2-(4-(3-cyclopropylureido)-2-fluorophenyl)-4-morpholino-5H-pyrrolo[3,4-d]pyrimidine-6(7H)-carboxylate]
54 nM | CCNC(=O)Nc1ccc(-c2nc3c(c(N4CCOC[C@@H]4C)n2)CCN(C(=O)N(C)C)C3)c(F)c1 [Example 176, (S)-2-(4-(3-ethylureido)-2-fluorophenyl)-N,N-dimethyl-4-(3-methylmorpholino)-5,6-dihydropyrido[3,4-d]pyrimidine-7(8H)-carboxamide]
52 nM | C[C@H]1COCCN1c1nc(-c2ccc(NC(=O)NC3CC3)cc2F)nc2c1CN(C(=O)N(C)C)C2 [Example 178, (S)-2-(4-(3-cyclopropylureido)-2-fluorophenyl)-N,N-dimethyl-4-(3-methylmorpholino)-5H-pyrrolo[3,4-d]pyrimidine-6(7H)-carboxamide]
31 nM | CCOC(=O)N1Cc2nc(-c3ccc(NC(=O)NC4CC4)cc3F)nc(N3CCOC[C@H]3C)c2C1 [Example 179, (R)-ethyl 2-(4-(3-cyclopropylureido)-2-fluorophenyl)-4-(3-methylmorpholino)-5H-pyrrolo[3,4-d]pyrimidine-6(7H)-carboxylate]
